Like-named read-outs stand apart in the source and are kept apart here.
Experiments:
HVA currents = test system: HVA currents; parameters: method as in PMID 14718587; settings: INS-1 cells; read-out: IC50 for inhibition of HVA currents; cited from earlier work
MRSA MW2 [1] = test: Sytox green membrane permeabilization; assay type: cell-based, Staphylococcus aureus; settings: compounds at 64 µg/mL, monitored over 1 h
Method: To determine whether the compounds target bacterial membranes, MRSA MW2 was treated with the compounds and uptake of the membrane-impermeable DNA-binding fluorescent dye Sytox green was monitored over 1 h (Figure 4).
Sytox Green (Life Technologies, Needham, MA, USA) membrane permeabilization assays were performed as previously described. The experiments were carried out in duplicate in 96-well plates. Cells were grown to log phase and were harvested by centrifuging at 3700× g for 5 min. The cells were washed twice with PBS and resuspended to OD600 = 0.2, following which 5 µM Sytox green was added to the cells and the bacteria-dye mixture were incubated in the dark for 30 mins.
Cell suspensions (50 µL) were added to 50 µL of test compounds (64 µg/mL in PBS) and fluorescence intensity was measured (excitation 485 nm, emission 530 nm) periodically over 60 min.

[2] = test system: MRSA-MW2 infection of C. elegans; test: C. elegans–MRSA-MW2 high-throughput screen (Z-score, alive versus dead worms); assay type: in vivo, Caenorhabditis elegans; settings: screening concentration 2.86 µg/mL, hits Z > 2
Description: The five compounds: (4,4′,4″-(4-propyl-[1H]-pyrazole-1,3,5-triyl)trisphenol, PPT; (1S,2S)-2-[2-[[3-(1H-benzimidazol-2-yl)propyl]methylamino]ethyl]-6-fluoro-1,2,3,4-tetrahydro-1-(1-methylethyl)-2- naphthalenyl cyclopropanecarboxylate dihydrochloride, NNC; 4,5,6,7-tetrabromobenzotriazole, TBB; 3-[2-[2-chloro-4-[3-(2,6-dichlorophenyl)-5-(1-methylethyl)-4-isoxazolyl]methoxy]phenyl] ethenyl] benzoic acid, GW4064; and N-(cyclopropylmethoxy)-3,4,5-trifluoro-2-[(4-iodo-2-methylphenyl)amino] benzamide, PD198306) were purchased from Tocris Bioscience at the following levels of purity: PPT: >99.7%, NNC: >98%, TBB: >99%, GW4064: >97%, and PD198306: 98.8%. […] Hits were identified based on Z-scores. Z-scores are calculated from the ratio of alive versus dead worms after treatment with test compounds and represents the number of standard deviations (SD) the test compound differs from the mean using the formula Z = (x − μ)/σ; where x is the raw sample score, μ is the mean of the population and σ is the standard deviation of the population. Samples with Z > 2σ are considered hits.

[3] = test system: clinical S. aureus isolate BF4; test: Broth microdilution MIC, clinical S. aureus isolate BF4; assay type: cell-based; settings: Staphylococcus aureus; BF4; read-out: MIC
Method: (§1) In vitro antibacterial activities were determined using the broth microdilution method. Assays were performed as described in Clinical and Laboratory Standards Institute protocols in triplicate using cation-adjusted Muller–Hinton broth (Becton Dickinson and Company, Franklin Lakes, NJ, USA) in 96-well plates with a total assay volume of 100 µL. Two-fold serial dilutions of test compounds were prepared over the concentration range of 1–64 µg/mL. The bacterial concentration was adjusted to OD600 = 0.06. […] A 10 µL aliquot from each well in the MIC assays was plated onto Muller–Hinton agar (Becton Dickinson and Company, Franklin Lakes, NJ, USA) and incubated overnight at 37 °C. The lowest concentration of compound for which no growth was observed on agar plates was reported as the minimal bactericidal concentration (MBC).

MRSA-MW2 = test: Checkerboard synergy assay (FIC index); assay type: cell-based, Staphylococcus aureus; settings: synergy FIC ≤ 0.5
Method: The combination of two antibiotics with different modes of action can reduce bacterial resistance and sometimes even restore clinical efficacy of an antibiotic that has lost effectiveness. The five compounds were tested against MRSA-MW2 in the presence of five clinical antibiotics from different classes (i.e., polymyxin B, gentamycin, erythromycin, doxycycline, and oxacillin).
Antibacterial synergy for combinations of the compounds with each other and with clinical antibiotics (doxycycline, gentamicin, polymyxin-B, oxacillin, and erythromycin) was measured using checkerboard assays. In short, Cultures of MRSA-MW2 were adjusted to OD600 = 0.06 and one compound was arrayed horizontally and other vertically in 96 well plates. The assays were carried out in triplicate, exactly as described for the antibacterial susceptibility assays. The inhibitory effects of compound combinations were evaluated using the Fractional Inhibitory Concentration (FIC) index, derived from the formula:FIC index = FICA + FICB = [A]/MICA + [B]/MICB
MIC of substance A tested in combination /MIC of substance A tested alone + MIC of substance B tested in combination/MIC of substance B tested alone. Synergy is indicated when FIC ≤ 0.5, indifference when 0.5 ≤ FIC ≤ 4, and antagonism when FIC > 4. Experiments were performed in duplicate and report the average FIC index.

Pseudomonas aeruginosa = test: Broth microdilution MIC, Pseudomonas aeruginosa; assay type: cell-based; settings: read-out: MIC
Method: as §1

A549 = test: MTT cytotoxicity, A549; settings: A549, 24 hr
Method: (§2) Mammalian cell lines HepG2 (hepatic cells), A549 (epithelial cells), and MKN-28 (gastric cells) were used to measure the anti-proliferative properties of test compounds, as described elsewhere [28]. Cells were grown in Dulbecco’s Modified Eagle Medium (DMEM) (Gibco, Waltham, MA, USA) supplemented with 10% Fetal Bovine Serum (FBS) (Gibco, Waltham, MA, USA) and 1% penicillin/streptomycin (Gibco, Waltham, MA, USA) and maintained at 37 °C in 5% CO2. After harvesting, the cells were suspended in DMEM and 100 µL was added to the wells of 96-well plates. The test compounds were serially diluted in serum and antibiotic free DMEM, added to the monolayer of cells, and incubated at 37 °C in 5% CO2 for 24 hr. Percentage survival was calculated by comparison to DMSO-treated vehicle controls. Assays were carried out in triplicate.

MKN-28 = test: MTT cytotoxicity, MKN-28; settings: MKN-28, 24 hr
Method: as §2

Cav3.1 T-type channels = test system: Cav3.1 T-type channels; parameters: method as in PMID 14718587; settings: INS-1 cells; read-out: IC50 for inhibition of Cav3.1 T-type channels; cited from earlier work
MRSA MW2 [4] = test: Broth microdilution antibacterial susceptibility (MIC/MBC), MRSA MW2; assay type: cell-based, Staphylococcus aureus; settings: for MBC: MRSA MW2
Method: as §1

[5] = test system: MRSA MW2 infection of Galleria mellonella larvae; test: G. mellonella–MRSA survival assay; assay type: in vivo; settings: larvae infected with MRSA MW2 5 × 10^5 CFU, compound 10 mg/kg 2 h after infection, monitored 120 h; untreated 1 day
Method: Larvae were infected with MRSA MW2 (5 × 10^5 CFU) in the left rear proleg, and after two hours, the compounds were introduced separately at 10 mg/kg into the right rear proleg and larvae survival was monitored for 120 h.
Assays were performed as described previously. Briefly, sixteen randomly selected G. mellonella larvae (Vanderhorst, Inc., St. Mary’s, OH, USA) between 300–350 mg were used for each test group. MRSA-MW2 was grown in Tryptic Soy Broth (TSB), washed with phosphate buffered saline (PBS, pH = 7.4), and diluted to OD600 = 0.3 before inoculation into G. mellonella larvae. A 10-μL inoculum was injected into the last left proleg using a 10-μL Hamilton syringe. After 2 h, compounds were administered into the last right proleg and larvae were incubated at 37 °C. G.mellonella survival was monitored for 120 h, and death was confirmed when there was no response. Killing curves and differences in survival were analyzed by the Kaplan–Meier method using GraphPad Prism version 8 (GraphPad Software, La Jolla, CA, USA). Statistical analysis (Kruskal–Wallis test) was carried out using the same program.

Acinetobacter baumannii = test: Broth microdilution MIC, Acinetobacter baumannii; assay type: cell-based; settings: read-out: MIC
Method: as §1

Enterobactor aerogens = test: Broth microdilution MIC, Enterobactor aerogens; assay type: cell-based; settings: Enterobactor aerogens; read-out: MIC
Method: as §1

Enterococcus faecium = test: Broth microdilution MIC, Enterococcus faecium; assay type: cell-based; settings: read-out: MIC
Method: as §1

Klebsiella pneumoniae = test: Broth microdilution MIC, Klebsiella pneumoniae; assay type: cell-based; settings: read-out: MIC
Method: as §1

[6] = test system: clinical S. aureus isolate BF1; test: Broth microdilution MIC, clinical S. aureus isolate BF1; assay type: cell-based; settings: Staphylococcus aureus; BF1; read-out: MIC
Method: as §1

[7] = test system: clinical S. aureus isolate BF2; test: Broth microdilution MIC, clinical S. aureus isolate BF2; assay type: cell-based; settings: Staphylococcus aureus; BF2; read-out: MIC
Method: as §1

[8] = test system: clinical S. aureus isolate BF3; test: Broth microdilution MIC, clinical S. aureus isolate BF3; assay type: cell-based; settings: Staphylococcus aureus; BF3; read-out: MIC
Method: as §1

HepG2 = test: MTT cytotoxicity, HepG2; settings: HepG2, 24 hr
Method: as §2

In the case of `CC(C)[C@H]1c2ccc(F)cc2CC[C@@]1(CCN(C)CCCc1nc2ccccc2[nH]1)OC(=O)C1CC1.Cl.Cl` [NNC, (1S,2S)-2-[2-[[3-(1H-Benzimidazol-2-yl)propyl]methylamino]ethyl]-6-fluoro-1,2,3,4-tetrahydro-1-(1-methylethyl)-2-naphthalenyl cyclopropanecarboxylate dihydrochloride], the IC50 (HVA currents) is given as > 100 µM, the “cellular fluorescence (Sytox green uptake)” value (MRSA MW2 [1]) is given as “increases in cellular fluorescence” and the Z-Score [2] is given as 5.83. The MIC [3] was 4 µg/mL, the “Fractional Inhibitory Concentration (FIC) Index” value (MRSA-MW2; with Doxycycline) was 0.75 and the “Fractional Inhibitory Concentration (FIC) Index” value (MRSA-MW2; with Erythromycin) was 1.0. The “Fractional Inhibitory Concentration (FIC) Index” value (MRSA-MW2; with Gentamycin) was 0.75, the “Fractional Inhibitory Concentration (FIC) Index” value (MRSA-MW2; with Oxacillin) was 2.0 and the “Fractional Inhibitory Concentration (FIC) Index” value (MRSA-MW2; with Polymyxin B) was 0.5. The MIC (Pseudomonas aeruginosa) was > 64 µg/mL, the Eukaryotic cell cytotoxicity (A549) was 16 µg/mL and the Eukaryotic cell cytotoxicity (MKN-28) was 8 µg/mL. The IC50 (Cav3.1 T-type channels) was 6.8 µM, the MBC (MRSA MW2 [4]) was >64 µg/mL and the MIC (MRSA MW2 [4]; Staphylococcus aureus, MRSA MW2, 18 h, 37 °C, read-out: MIC) was 8 µg/mL. The MBC (MRSA MW2 [4]; Staphylococcus aureus, read-out: MBC) was > 64 µg/mL, the median post-infection survival [5] was 2 days and the MIC (Acinetobacter baumannii) was > 64 µg/mL. For the same compound, the MIC (Enterobactor aerogens) was > 64 µg/mL, the MIC (Enterococcus faecium) was 8 µg/mL and the MIC (Klebsiella pneumoniae) was > 64 µg/mL. The MIC [6] was 4 µg/mL, the MIC [7] was 2 µg/mL and the MIC [8] was 4 µg/mL. It also gave an Eukaryotic cell cytotoxicity (HepG2) of 2 µg/mL.
